Patent publication US20130065922A1, “NOVEL AMIDES AS FUNGICIDES” (priority 2010, published 2013)
Read-outs that look alike come from different tables or passages of the source.

Key:
Pythium ultimum = experiment: Pythium ultimum/Liquid Culture (Seedling Damping Off); assay type: cell-based; details: Globisporangium ultimum, read-out: inhibit fungal infestation
Phytophthora infestans = experiment: whole plant or invertebrate; assay type: in vivo; details: in Solanum lycopersicum, foliar, read-out: inhibit fungal infestation
Plasmopara viticola = experiment: whole plant or invertebrate; assay type: in vivo; details: foliar, read-out: inhibit fungal infestation
[1] = tested on: Blumeria graminis f. Sp. tritici (Erysiphe graminis f. Sp. tritici); experiment: Blumeria graminis f. Sp. tritici (Erysiphe graminis f. Sp. tritici)/Wheat/Leaf Disc Preventative (Powdery Mildew on Wheat); assay type: in vivo; details: foliar, read-out: inhibit fungal infestation
[2] = tested on: Phaeosphaeria nodorum (Septoria nodorum); experiment: Phaeosphaeria nodorum (Septoria nodorum)/Wheat/Leaf Disc Preventative (Glume Blotch); assay type: in vivo; details: Parastagonospora nodorum, foliar, read-out: inhibit fungal infestation
[3] = 200 ppm, wheat leaf segments cv. Kanzler, preventative, 6-8 days after application, untreated control infected to over 80%
[4] = 200 ppm, liquid culture (PDB), 24° C., growth inhibition photometrically 2-3 days after application
[5] = 200 ppm, wheat leaf segments cv. Kanzler, preventative, 5-7 days after application, untreated control infected to over 80%

CC#CC(C)(C)NC(=O)C(Oc1cc(Cl)c2ncc(SC)cc2c1)SC (stereo not shown) [Compound 33, 2-(8-Chloro-3-methylsulfanyl-quinolin-6-yloxy)-N-(1,1-dimethyl-but-2-ynyl)-2-methylsulfanyl-acetamide]
inhibition at 200 ppm (Pythium ultimum): ≥ 80% | inhibition at 200 ppm (Phytophthora infestans): ≥ 80% | melting point: 153 to 155 °C | inhibition at 200 ppm (Plasmopara viticola): ≥ 80%

CCC(Oc1ccc2ncc(SC)cc2c1)C(=O)NC(C)(C)C (stereo not shown) [Compound 30, N-tert-Butyl-2-(3-methylsulfanyl-quinolin-6-yloxy)-butyramide]
inhibition at 200 ppm [1, 3]: ≥ 80% | inhibition at 200 ppm (Pythium ultimum; [4]): ≥ 80% | inhibition at 200 ppm (Phytophthora infestans): ≥ 80% | melting point: 113 to 115 °C | inhibition at 200 ppm (Plasmopara viticola): ≥ 80%

CC#CC(C)(C)NC(=O)C(Oc1ccc2ncc(OC)cc2c1)SC (stereo not shown) [Compound 11, N-(1,1-Dimethyl-but-2-ynyl)-2-(3-methoxy-quinolin-6-yloxy)-2-methylsulfanyl-acetamide]
inhibition at 200 ppm [2]: ≥ 80% | inhibition at 200 ppm [1]: ≥ 80% | inhibition at 200 ppm (Pythium ultimum): ≥ 80% | inhibition at 200 ppm (Phytophthora infestans): ≥ 80% | melting point: 137 to 139 °C | inhibition at 200 ppm (Plasmopara viticola): ≥ 80%

CCOc1cnc2c(C)cc(OC(SC)C(=O)NC(C)(C)/C=N/OC)cc2c1 (stereo not shown) [Compound 21, 2-(3-Ethoxy-8-methyl-quinolin-6-yloxy)-N-(2-methoxyimino-1,1-dimethyl-ethyl)-2-methylsulfanyl-acetamide]
inhibition at 200 ppm [2, 5]: ≥ 80% | inhibition at 200 ppm [1, 3]: ≥ 80% | inhibition at 200 ppm (Pythium ultimum; [4]): ≥ 80% | inhibition at 200 ppm (Phytophthora infestans): ≥ 80% | melting point: 125 to 126 °C | inhibition at 200 ppm (Plasmopara viticola): ≥ 80%

C#CC(C)(C)NC(=O)C(Oc1ccc2ncc(OC)cc2c1)SC (stereo not shown) [Compound 10, N-(1,1-Dimethyl-prop-2-ynyl)-2-(3-methoxy-quinolin-6-yloxy)-2-methylsulfanyl-acetamide]
inhibition at 200 ppm [2, 5]: ≥ 80% | inhibition at 200 ppm [1, 3]: ≥ 80% | inhibition at 200 ppm (Pythium ultimum; [4]): ≥ 80% | inhibition at 200 ppm (Phytophthora infestans): ≥ 80% | melting point: 152 to 154 °C | inhibition at 200 ppm (Plasmopara viticola): ≥ 80%

C#CC(C)(COC)NC(=O)C(Oc1ccc2ncc(OC)cc2c1)SC (stereo not shown) [Compound 5, N-(1-Methoxymethyl-1-methyl-prop-2-ynyl)-2-(3-methoxy-quinolin-6-yloxy)-2-methylsulfanyl-acetamide]
inhibition at 200 ppm [2, 5]: ≥ 80% | inhibition at 200 ppm [1, 3]: ≥ 80% | inhibition at 200 ppm (Pythium ultimum; [4]): ≥ 80% | inhibition at 200 ppm (Phytophthora infestans): ≥ 80% | melting point: 112 to 118 °C | inhibition at 200 ppm (Plasmopara viticola): ≥ 80%

COCC#CC(C)(C)NC(=O)C(Oc1cc(C)c2ncc(OC)cc2c1)SC (stereo not shown) [Compound 17, N-(4-Methoxy-1,1-dimethyl-but-2-ynyl)-2-(3-methoxy-8-methyl-quinolin-6-yloxy)-2-methylsulfanyl-acetamide]
inhibition at 200 ppm [2]: ≥ 80% | inhibition at 200 ppm [1]: ≥ 80% | inhibition at 200 ppm (Pythium ultimum): ≥ 80% | inhibition at 200 ppm (Phytophthora infestans): ≥ 80% | melting point: 94 to 98 °C | inhibition at 200 ppm (Plasmopara viticola): ≥ 80%

C#CC(C)(C)NC(=O)C(CC)Oc1cc(C)c2ncc(SC)cc2c1 (stereo not shown) [Compound 37, N-(1,1-Dimethyl-prop-2-ynyl)-2-(8-methyl-3-methylsulfanyl-quinolin-6-yloxy)-butyramide]
inhibition at 200 ppm [2, 5]: ≥ 80% | inhibition at 200 ppm (Pythium ultimum; [4]): ≥ 80% | melting point: 134 to 136 °C | inhibition at 200 ppm (Plasmopara viticola): ≥ 80%

C#CC(C)(C)NC(=O)C(CC)Oc1ccc2ncc(SC)cc2c1 (stereo not shown) [Compound 29, N-(1,1-Dimethyl-prop-2-ynyl)-2-(3-methylsulfanyl-quinolin-6-yloxy)-butyramide]
inhibition at 200 ppm [1, 3]: ≥ 80% | inhibition at 200 ppm (Pythium ultimum; [4]): ≥ 80% | inhibition at 200 ppm (Phytophthora infestans): ≥ 80% | melting point: 121 to 123 °C | inhibition at 200 ppm (Plasmopara viticola): ≥ 80%

CCSc1cnc2ccc(OC(SC)C(=O)NC(C)(C)/C=N/OC)cc2c1 (stereo not shown) [Compound 64, 2-(3-Ethylsulfanyl-quinolin-6-yloxy)-N-(2-methoxyimino-1,1-dimethyl-ethyl)-2-methylsulfanyl-acetamide]
inhibition at 200 ppm [1, 3]: ≥ 80% | inhibition at 200 ppm (Pythium ultimum; [4]): ≥ 80% | inhibition at 200 ppm (Phytophthora infestans): ≥ 80% | melting point: 105 to 107 °C | inhibition at 200 ppm (Plasmopara viticola): ≥ 80%

C#CC(C)(C=C)NC(=O)C(Oc1ccc2ncc(SC)cc2c1)SC (stereo not shown) [Compound 63, N-(1-Ethynyl-1-methyl-allyl)-2-methylsulfanyl-2-(3-methylsulfanyl-quinolin-6-yloxy)-acetamide]
inhibition at 200 ppm (Pythium ultimum; [4]): ≥ 80% | inhibition at 200 ppm (Phytophthora infestans): ≥ 80% | melting point: 121 to 123 °C | inhibition at 200 ppm (Plasmopara viticola): ≥ 80%

C#CC(C)(C#C)NC(=O)C(Oc1cc(C)c2ncc(OCC)cc2c1)SC (stereo not shown) [Compound 23, 2-(3-Ethoxy-8-methyl-quinolin-6-yloxy)-N-(1-ethynyl-1-methyl-prop-2-ynyl)-2-methylsulfanyl-acetamide]
inhibition at 200 ppm [2, 5]: ≥ 80% | inhibition at 200 ppm [1, 3]: ≥ 80% | inhibition at 200 ppm (Pythium ultimum; [4]): ≥ 80% | melting point: 143 to 145 °C | inhibition at 200 ppm (Plasmopara viticola): ≥ 80%

C#CC(C)(C)NC(=O)C(Oc1cc(C)c2ncc(OCC)cc2c1)SC (stereo not shown) [Compound 25, N-(1,1-Dimethyl-prop-2-ynyl)-2-(3-ethoxy-8-methyl-quinolin-6-yloxy)-2-methylsulfanyl-acetamide]
inhibition at 200 ppm [2, 5]: ≥ 80% | inhibition at 200 ppm [1, 3]: ≥ 80% | inhibition at 200 ppm (Pythium ultimum; [4]): ≥ 80% | melting point: 160 to 162 °C | inhibition at 200 ppm (Plasmopara viticola): ≥ 80%

CC#CC(C)(C)NC(=O)C(Oc1cc(Cl)c2ncc(OC)cc2c1)SC (stereo not shown) [Compound 14, 2-(8-Chloro-3-methoxy-quinolin-6-yloxy)-N-(1,1-dimethyl-but-2-ynyl)-2-methylsulfanyl-acetamide]
inhibition at 200 ppm [2]: ≥ 80% | inhibition at 200 ppm [1]: ≥ 80% | inhibition at 200 ppm (Pythium ultimum): ≥ 80% | inhibition at 200 ppm (Phytophthora infestans): ≥ 80% | melting point: 133 to 136 °C | inhibition at 200 ppm (Plasmopara viticola): ≥ 80%

CCOc1cnc2ccc(OC(SC)C(=O)NC(C)(C)C)cc2c1 (stereo not shown) [Compound 26, N-tert-Butyl-2-(3-ethoxy-quinolin-6-yloxy)-2-methylsulfanyl-acetamide]
inhibition at 200 ppm [2, 5]: ≥ 80% | inhibition at 200 ppm [1, 3]: ≥ 80% | inhibition at 200 ppm (Pythium ultimum; [4]): ≥ 80% | melting point: 120 to 123 °C

CO/N=C/C(C)(C)NC(=O)C(Oc1cc(C)c2ncc(OC)cc2c1)SC (stereo not shown) [Compound 19, N-(2-Methoxyimino-1,1-dimethyl-ethyl)-2-(3-methoxy-8-methyl-quinolin-6-yloxy)-2-methylsulfanyl-acetamide]
inhibition at 200 ppm [2, 5]: ≥ 80% | inhibition at 200 ppm [1, 3]: ≥ 80% | inhibition at 200 ppm (Pythium ultimum; [4]): ≥ 80% | inhibition at 200 ppm (Phytophthora infestans): ≥ 80% | melting point: 121 to 124 °C | inhibition at 200 ppm (Plasmopara viticola): ≥ 80%

CSc1cnc2ccc(OC(SC)C(=O)NC(C)(C)C#N)cc2c1 (stereo not shown) [Compound 68, N-(Cyano-dimethyl-methyl)-2-methylsulfanyl-2-(3-methylsulfanyl-quinolin-6-yloxy)-acetamide]
inhibition at 200 ppm (Pythium ultimum; [4]): ≥ 80% | inhibition at 200 ppm (Phytophthora infestans): ≥ 80% | inhibition at 200 ppm (Plasmopara viticola): ≥ 80%

C#CC(C)(C)NC(=O)C(Oc1cc(Cl)c2ncc(SC)cc2c1)SC (stereo not shown) [Compound 32, 2-(8-Chloro-3-methylsulfanyl-quinolin-6-yloxy)-N-(1,1-dimethyl-prop-2-ynyl)-2-methylsulfanyl-acetamide]
inhibition at 200 ppm (Pythium ultimum; [4]): ≥ 80% | inhibition at 200 ppm (Phytophthora infestans): ≥ 80% | melting point: 157 to 159 °C | inhibition at 200 ppm (Plasmopara viticola): ≥ 80%

CSc1cnc2ccc(OC(SC)C(=O)NC(C)(C#N)C3CC3)cc2c1 (stereo not shown) [Compound 65, N-(Cyano-cyclopropyl-methyl-methyl)-2-methylsulfanyl-2-(3-methyl-sulfanyl-quinolin-6-yloxy)-acetamide]
inhibition at 200 ppm [2, 5]: ≥ 80% | inhibition at 200 ppm (Pythium ultimum; [4]): ≥ 80% | inhibition at 200 ppm (Phytophthora infestans): ≥ 80% | inhibition at 200 ppm (Plasmopara viticola): ≥ 80%

COCC(C)(C#N)NC(=O)C(Oc1cc(C)c2ncc(OC)cc2c1)SC (stereo not shown) [Compound 18, N-(1-Cyano-2-methoxy-1-methyl-ethyl)-2-(3-methoxy-8-methyl-quinolin-6-yloxy)-2-methylsulfanyl-acetamide]
inhibition at 200 ppm [1, 3]: ≥ 80% | inhibition at 200 ppm (Pythium ultimum; [4]): ≥ 80% | inhibition at 200 ppm (Phytophthora infestans): ≥ 80% | melting point: 123 to 129 °C | inhibition at 200 ppm (Plasmopara viticola): ≥ 80%

CO/N=C/C(C)(C)NC(=O)C(Oc1ccc2ncc(SC)cc2c1)SC (stereo not shown) [Compound 27, N-(2-Methoxy-imino-1,1-dimethyl-ethyl)-2-methylsulfanyl-2-(3-methylsulfanyl-quinolin-6-yloxy)-acetamide]
inhibition at 200 ppm [2, 5]: ≥ 80% | inhibition at 200 ppm [1, 3]: ≥ 80% | inhibition at 200 ppm (Pythium ultimum; [4]): ≥ 80% | inhibition at 200 ppm (Phytophthora infestans): ≥ 80% | melting point: 120 to 122 °C | inhibition at 200 ppm (Plasmopara viticola): ≥ 80%

CCOc1cnc2c(C)cc(OC(SC)C(=O)NC(C)(C)C#CCOC)cc2c1 (stereo not shown) [Compound 22]
inhibition at 200 ppm [2]: ≥ 80% | inhibition at 200 ppm [1]: ≥ 80% | inhibition at 200 ppm (Pythium ultimum): ≥ 80% | inhibition at 200 ppm (Phytophthora infestans): ≥ 80% | melting point: 107 to 109 °C | inhibition at 200 ppm (Plasmopara viticola): ≥ 80%

COc1cnc2c(C)cc(OC(SC)C(=O)NC(C)(C)C)cc2c1 (stereo not shown) [Compound 16, N-tert-Butyl-2-(3-methoxy-8-methyl-quinolin-6-yloxy)-2-methylsulfanyl-acetamide]
inhibition at 200 ppm [2, 5]: ≥ 80% | inhibition at 200 ppm [1, 3]: ≥ 80% | inhibition at 200 ppm (Pythium ultimum; [4]): ≥ 80% | inhibition at 200 ppm (Phytophthora infestans): ≥ 80% | melting point: 147 to 150 °C

COCC#CC(C)(C)NC(=O)C(Oc1ccc2ncc(OC)cc2c1)SC (stereo not shown) [Compound 4, N-(4-Methoxy-1,1-dimethyl-but-2-ynyl)-2-(3-methoxy-quinolin-6-yloxy)-2-methylsulfanyl-acetamide]
inhibition at 200 ppm [1]: ≥ 80% | inhibition at 200 ppm (Pythium ultimum): ≥ 80% | inhibition at 200 ppm (Phytophthora infestans): ≥ 80% | melting point: 95 to 98 °C | inhibition at 200 ppm (Plasmopara viticola): ≥ 80%
